US12629348B2, “Method and composition for treating osteoarthritis” (Vireo Systems, Inc., priority 2013, dated 2026)
“Also recorded” adds a separate entry of the source.

Tests used:
cyclooxygenase-2 (COX-2) = molecular target: T1, cyclooxygenase-2 (COX-2) (Homo sapiens, UniProt P35354); test: Inhibition of cyclooxygenase-2 activity
T1 sequence (P35354 18-604): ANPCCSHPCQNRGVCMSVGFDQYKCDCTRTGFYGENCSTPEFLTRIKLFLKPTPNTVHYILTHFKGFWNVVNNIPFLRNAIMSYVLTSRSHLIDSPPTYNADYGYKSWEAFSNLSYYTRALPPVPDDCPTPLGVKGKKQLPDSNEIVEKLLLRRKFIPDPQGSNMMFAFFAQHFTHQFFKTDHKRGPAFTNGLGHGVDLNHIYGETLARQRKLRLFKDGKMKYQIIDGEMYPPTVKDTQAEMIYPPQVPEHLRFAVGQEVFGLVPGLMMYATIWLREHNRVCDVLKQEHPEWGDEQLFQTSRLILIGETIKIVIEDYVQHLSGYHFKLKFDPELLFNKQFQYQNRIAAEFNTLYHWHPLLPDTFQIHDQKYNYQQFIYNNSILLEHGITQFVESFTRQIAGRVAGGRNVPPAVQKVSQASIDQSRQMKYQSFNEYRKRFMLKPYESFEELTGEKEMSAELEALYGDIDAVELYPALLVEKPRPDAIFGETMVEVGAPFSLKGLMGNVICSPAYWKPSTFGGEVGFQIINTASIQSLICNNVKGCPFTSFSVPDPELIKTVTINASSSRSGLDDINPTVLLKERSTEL

PGE2 = test: Plasma PGE2 (PGE2 metabolite competitive EIA) in OA canines; format: in vivo, canine; details: 36 mg/kg/day oral
Protocol: The double-blind study was performed on a total of 30 adult canines of various breeds in five different private practice clinics. Owner consent was obtained prior to participation in the study. Each clinic was responsible for enrolling 6 canines into the study. Inclusion criteria for the study consisted of clinical assessment and radiograph confirmation of OA in at least one joint and a score of 22 or greater on the Helsinki chronic pain index (“HCPI”). Use of NSAIDs or other dietary supplements for OA were allowed, provided the current treatment regimens had not been altered for a period of at least three months. […]
In addition to the standard blood chemistry profile, blood samples taken before and at the conclusion of the two-week trial period were analyzed for PGE2 and SAA. […] Both plasma and serum samples were centrifuged at 2000×g for 10 minutes and the plasma and serum supernatants removed and frozen at […] until analyzed for PGE2 and SAA using enzyme-linked immunosorbent assays (“HA”). […] Plasma samples were analyzed for PGE2 using the bicycle PGE2 competitive EIA kit purchased from Cayman Chemical (Ann Arbor, MI). The assay converts PGE2 metabolites into a stable derivative that is measured using EIA. Samples (100 μl) were analyzed in triplicate and PGE2 concentrations determined by use of standard curve. […]

TLR-3 = test: TLR expression in exposed cells (real time PCR or immunofluorescent staining); format: cell-based
Excerpt: (§1) In one embodiment, the anti-inflammatory agent may include ethyl (α-guanido-methyl) ethanoate (“Alpha-GEE”). […] Toll receptors act as a key part of our body's recognition mechanism and appear to be a major factor in the onset and/or progression of various medical indications including those that involve inflammation and pain. In particular, real time PCR or immunofluorescent staining of exposed cells was used to assess expression of toll-like receptor-2 (TLR-2), TLR-3, TLR-4, and TLR-7. […] Without being bound by any particular theory, the mechanism by which TLR expression seems to be altered involves decreased pro-inflammatory mediator production in the wake of exposure to Alpha-GEE.

TLR-7 = test: as above; format: cell-based
Excerpt: as §1

TLR-4 = test: as above; format: cell-based
Excerpt: as §1

[1] = system: toll-like receptor-2 (TLR-2); test: as above; format: cell-based
Excerpt: as §1

brain endothelial cells = test: Release of PGE2 from brain endothelial cells exposed to bacterial endotoxin; format: cell-based; details: FIG. 1
Excerpt: The brain endothelial cells were first exposed to bacterial endotoxin.

Q: Which “inhibition of COX-2 activity” value (cyclooxygenase-2 (COX-2); 0.1 μM) does the source give for “ethyl (α-guanido-methyl) ethanoate [Alpha-GEE]” here?
A: The value was “about 10%”.

Q: And the “inhibition of COX-2 activity” value (cyclooxygenase-2 (COX-2); 1 μM (first of three values printed for '1 μM and 100 μM'))?
A: Its value is “about 15%”.

Q: What about the “inhibition of COX-2 activity” value (cyclooxygenase-2 (COX-2); 100 μM (third of three values printed for '1 μM and 100 μM')) of the same substance?
A: The value was “about 15%”.

Q: And the “concentration dependency of inhibition of COX-2” value (cyclooxygenase-2 (COX-2); 0.1-100 μM, FIG. 2)?
A: Its value is “did not show a concentration dependency”.

Q: What about the “inhibition of COX-2 activity” value (cyclooxygenase-2 (COX-2); concentration not printed (second of three values printed for '1 μM and 100 μM')) of the same substance?
A: Its value is “about 18%”.

Q: What about the “PGE2 plasma concentration, post-trial” value (PGE2; mean ± SD after two weeks, pre-trial 268 ± 11) of the same substance?
A: The value was 264 ± 10 pg/mL.

Q: And the “difference between pre-trial and post-trial plasma levels of PGE2” value (PGE2; two-week trial, 36 mg/kg/day)?
A: Its value is “No significant differences; also recorded: no difference”.

Q: What about the “expression of TLR-3 in cells” value (TLR-3) of the same substance?
A: Its value is “increases expression”.

Q: What about the “expression of TLR-7 in cells” value (TLR-7) of the same substance?
A: The value was “increases expression”.

Q: And the “expression of TLR-4 in cells” value (TLR-4)?
A: Its value is “increases expression”.

Q: What about the “expression of TLR-2 in cells” value [1] of the same substance?
A: The value was “increases expression”.

Q: What about the “reduction in the release of PGE2 from brain endothelial cells” value (brain endothelial cells; concentration of about 20 μM or more) of the same substance?
A: Its value is at least 50%.

Q: And the “reduction in the release of PGE2 from brain endothelial cells” value (brain endothelial cells; concentration of about 1000 μM or more)?
A: Its value is “greater than 50%”.
